In data set [1] the test system is Staphylococcus aureus No. 1 (a clinically isolated strain of MRSA). The data set can be described thus: Protective effect against experimental systemic MRSA infection in mice. Format: in vivo, ICR-MCH mice. The conditions noted are these: dose 10 mg/kg, once subcutaneously one hour after infection. How it is done:
(§1) The experiments were carried out by intra-peritoneally administering 0.5 mg/0.5 ml/mouse of cyclophosphamide to ICR-MCH mice [4-week-old male mice (available from Nippon CLEA Co., Ltd.), 8 animals per group] 3 days before the infection and then infecting the animals through intra-peritoneal administration of 0.5 ml each of a liquid containing 2×10^6 /ml of Staphylococcus aureus No. 1 strain supplemented with 5% mucin. One hour after the infection, 10 mg/kg of Vancomycin HCl (available from Shionogi & Co., Ltd.) and 0.2 ml/mouse of the antibiotic WAP-8294A (containing 10 mg/kg, 5 mg/kg, 2.5 mg/kg, 1.0 mg/kg, 0.5 mg/kg, 0.25 mg/kg, 0.1 mg/kg or 0.05 mg/kg of the antibiotic) was once subcutaneously injected to mice. To control groups, there was subcutaneously administered 0.2 ml each of physiological saline.

The test system of data set [2] is Staphylococcus aureus JCM8702 (a clinically isolated strain of MRSA). The data set is described as above. Format: in vivo, ICR-MCH mice. Particulars: dose 10 mg/kg, once subcutaneously one hour after infection. As for the experimental part: as §1, with “2×10^4” for “2×10^6”, “JCM8702” for “No. 1”, “WAP-8294AX” for “WAP-8294A”, “10” for “10 mg/kg, 5”, “1.0” for “1.0 mg/kg, 0.5 mg/kg, 0.25 mg/kg, 0.1”, “0.5” for “0.05”

Data set [3] has as its system Aspergillus fumigatus (IAM 2004). The data set can be described thus: MIC, broth dilution, sensitive bouillon medium. Format: cell-based. As for the experimental part: (§2) The determination of the minimum inhibitory concentration (MIC) was carried out by broth dilution method which made use of a sensitive bouillon medium (available from Eiken Chemical Co., Ltd.).
Background: Broth dilution looks for growth in wells or tubes with falling amounts of substance.

In data set [4] the test system is Pseudomonas aeruginosa (ATCC 9027). Put plainly: MIC, broth dilution, sensitive bouillon medium. Format: cell-based. How it is done:
as §2

Data set [5] has as its system Staphylococcus aureus (ATCC 25923). Put plainly: MIC, broth dilution, sensitive bouillon medium. Format: cell-based. As for the experimental part: as §2
In data set [6] the test system is Candida albicans (TIMM 0239). The data set can be described thus: MIC, broth dilution, sensitive bouillon medium. Format: cell-based. How it is done: as §2
The test system of data set [7] is Staphylococcus aureus No. 1 (MRSA clinically isolated strain). Put plainly: MIC, broth dilution, sensitive bouillon medium. Format: cell-based. As for the experimental part: as §2
The subject of data set [8] is Streptococcus pyogenes (ATCC 19615). Put plainly: MIC, broth dilution, sensitive bouillon medium. Format: cell-based. As for the experimental part:
as §2

The subject of data set [9] is Staphylococcus epidermidis (ATCC 12228). Put plainly: MIC, broth dilution, sensitive bouillon medium. Format: cell-based. How it is done:
as §2

The test system of data set [10] is Escherichia coli (ATCC 25922). The data set can be described thus: MIC, broth dilution, sensitive bouillon medium. Format: cell-based. As for the experimental part:
as §2

For data set [11], the system named is Staphylococcus aureus No. 11 (MRSA clinically isolated strain). Put plainly: MIC, broth dilution, sensitive bouillon medium. Format: cell-based. As for the experimental part:
as §2

Data set [12] deals with Staphylococcus aureus 371 R (MRSA clinically isolated strain). Put plainly: MIC, broth dilution, sensitive bouillon medium. Format: cell-based. As for the experimental part:
as §2

For data set [13], the system named is Bacillus subtilis (ATCC 6633). The data set can be described thus: MIC, broth dilution, sensitive bouillon medium. Format: cell-based. How it is done: as §2
The next data set in a line: Solubility. Format: physicochemical. The conditions noted are these: solvents.
The test system of data set [14] is Gram-positive bacteria including MRSA (methicillin-resistant Staphylococcus aureus). The data set can be described thus: Antibacterial activity, summary of Table 4. The conditions noted are these: for increase of antibacterial activity when 10% bovine serum is added to the culture medium: relative to culture medium without serum; for antibacterial activity against Gram-positive bacteria including MRSA: sensitive bouillon medium, Table 4. Format: cell-based. How it is done:
as §2

Where [15] appears, read: Addition of Serum: 10% (bovine serum).

From patent US5648455A, “Antibiotic WAP-8294A, method for preparing the same and antibacterial composition” (Wakamoto Pharmaceutical Co., Ltd., priority 1994, dated 1997) come the findings set out here.

Each structure is given as a SMILES string. ≈ marks a conversion by molar mass, not a printed value. Numbered stars: 1 amine (or outer) side, 2 acyl side, 3 side chain; on linkers, the order of the positions; unused ones are H or OH. Bridge positions count the residues as written; N and C are the ends. Square brackets hold non-standard residues; d marks the D form. Peptide text beside a SMILES is read from it. ξ: configuration not given here. ξAsn(3ξ-OH) = NC(=O)C(O)C(N)C(=O)O; X2 = CC(C)CCCC(CC(=O)[*:1])O[*:2]; NMeF = CN[CH](Cc1ccccc1)C(=O)O; X1 = CCCCCC(CC(=O)[*:1])O[*:2]; NMeV = CN[CH](C(=O)O)C(C)C; Orn = NCCC[CH](N)C(=O)O A value given as a limit tells only on which side of the number the result lay.

As to `CN[C@H](CC(C)C)C(=O)N[C@H]1C(=O)N[C@@H](CC(N)=O)C(=O)N[C@H]2C(=O)N[C@H]3C(=O)N[C@H](C(=O)N[C@H](C(=O)O)c4cc(O)cc(O)c4-c4cc3ccc4O)[C@H](O)c3ccc(c(Cl)c3)Oc3cc2cc(c3O[C@@H]2O[C@H](CO)[C@@H](O)[C@H](O)[C@H]2O[C@H]2C[C@](C)(N)[C@H](O)[C@H](C)O2)Oc2ccc(cc2Cl)[C@H]1O` [Vancomycin], the “Survival/No. of Test Animals” value in data set [1] and in data set [2] was 5/8 throughout.
A word on the MIC: it is the smallest concentration in the dilution series that meets the test's criterion for growth inhibition. Low values mean inhibition by little substance, high ones a need for much substance. For the compound `CCCCCC1CC(=O)NC(CO)C(=O)NC(C(O)C(N)=O)C(=O)NC(CO)C(=O)NCC(=O)N(C)C(Cc2ccccc2)C(=O)NC(CC(C)C)C(=O)NC(CCCN)C(=O)NC(CCC(=O)O)C(=O)NC(CC(N)=O)C(=O)NC(Cc2c[nH]c3ccccc23)C(=O)NC(CCCN)C(=O)N(C)C(C(C)C)C(=O)O1` (stereo not shown) [WAP-8294A1] (S[ξAsn(3ξ-OH)]SG[NMeF]L[Orn]ENW[Orn][NMeV]; linker N-C via X1; configuration not given here), the minimum inhibitory concentration (MIC) is over 100 µg/mL in [3] (setting [15]); over 100 µg/mL in [3] (Addition of Serum: None); over 100 µg/mL in [4] (setting [15]); over 100 µg/mL in [4] (Addition of Serum: None); under 0.10 µg/mL in data set [5] (setting [15]); 0.39 µg/mL (≈ 0.252 µM) in [5] (Addition of Serum: None). Moreover, the MIC in [6] (setting [15]) is over 100 µg/mL; in data set [6] (Addition of Serum: None), over 100 µg/mL; in data set [7] (setting [15]) it was under 0.10 µg/mL; in data set [7] (Addition of Serum: None), 0.39 µg/mL (≈ 0.252 µM); in [8] (setting [15]) it was 25 µg/mL (≈ 16.1 µM); in data set [8] (Addition of Serum: None), 6.25 µg/mL (≈ 4.04 µM). The MIC was under 0.10 µg/mL in data set [9] (setting [15]); 0.39 µg/mL (≈ 0.252 µM) in data set [9] (Addition of Serum: None); over 100 µg/mL in data set [10] (setting [15]); over 100 µg/mL in data set [10] (Addition of Serum: None); under 0.10 µg/mL in data set [11] (setting [15]); 0.39 µg/mL (≈ 0.252 µM) in data set [11] (Addition of Serum: None). The minimal inhibitory concentration (MIC) was under 0.10 µg/mL in [12] (setting [15]), 0.39 µg/mL (≈ 0.252 µM) in [12] (Addition of Serum: None), under 0.10 µg/mL in data set [13] (setting [15]) and 0.39 µg/mL (≈ 0.252 µM) in data set [13] (Addition of Serum: None). For the same compound, in the data set “Solubility”, the Solubility entry is “soluble in water, methanol, n-butanol, dimethylformamide and dimethylsulfoxide and insoluble in acetone, ethyl acetate and chloroform”. Further, the “increase of antibacterial activity when 10% bovine serum is added to the culture medium” value in data set [14] is on record as “not less than 8 times”. Further, in [14], the “antibacterial activity against Gram-positive bacteria including MRSA” value is reported as “strong antibacterial activity”.
`CC(C)CCCC1CC(=O)NC(CO)C(=O)NC(C(O)C(N)=O)C(=O)NC(CO)C(=O)NCC(=O)N(C)C(Cc2ccccc2)C(=O)NC(CC(C)C)C(=O)NC(CCCN)C(=O)NC(CCC(=O)O)C(=O)NC(CC(N)=O)C(=O)NC(Cc2c[nH]c3ccccc23)C(=O)NC(CCCN)C(=O)N(C)C(C(C)C)C(=O)O1` (stereo not shown) [WAP-8294A2] (S[ξAsn(3ξ-OH)]SG[NMeF]L[Orn]ENW[Orn][NMeV]; linker N-C via X2; configuration not given here): the minimal inhibitory concentration (MIC) is over 100 µg/mL in [3] (setting [15]); over 100 µg/mL in data set [3] (Addition of Serum: None); over 100 µg/mL in data set [4] (setting [15]); over 100 µg/mL in data set [4] (Addition of Serum: None); under 0.10 µg/mL in data set [5] (setting [15]); 0.78 µg/mL (≈ 0.499 µM) in data set [5] (Addition of Serum: None). Also, the MIC in [6] (setting [15]) was over 100 µg/mL; in data set [6] (Addition of Serum: None), over 100 µg/mL; in data set [7] (setting [15]) it was under 0.10 µg/mL; in data set [7] (Addition of Serum: None), 0.78 µg/mL (≈ 0.499 µM); in [8] (setting [15]), 25 µg/mL (≈ 16 µM); in data set [8] (Addition of Serum: None) it was 6.25 µg/mL (≈ 4 µM). The minimal inhibitory concentration (MIC) in [9] (setting [15]) is under 0.10 µg/mL; in data set [9] (Addition of Serum: None), 0.78 µg/mL (≈ 0.499 µM); in data set [10] (setting [15]), over 100 µg/mL; in data set [10] (Addition of Serum: None) it was over 100 µg/mL; in [11] (setting [15]), under 0.10 µg/mL; in [11] (Addition of Serum: None), 0.78 µg/mL (≈ 0.499 µM). Besides, the minimal inhibitory concentration (MIC) in [12] (setting [15]) was under 0.10 µg/mL; in data set [12] (Addition of Serum: None), 0.78 µg/mL (≈ 0.499 µM); in data set [13] (setting [15]) it was under 0.10 µg/mL; in data set [13] (Addition of Serum: None), 0.78 µg/mL (≈ 0.499 µM). The Solubility result in the data set “Solubility” is “soluble in water, methanol, n-butanol, dimethylformamide and dimethylsulfoxide and insoluble in acetone, ethyl acetate and chloroform”. Further, the “increase of antibacterial activity when 10% bovine serum is added to the culture medium” value in data set [14] is “not less than 8 times”. Also, in data set [14], the “antibacterial activity against Gram-positive bacteria including MRSA” value is listed as “strong antibacterial activity”.
